Source: patent US20250215403A1, “Compositions and Methods for Cardiac Tissue Regeneration” (Temple University - Of The Commonwealth System Of Higher …, priority 2022, published 2025)

B1: PSPH: modRNA encoding phosphoserine phosphatase (ORF SEQ ID NO: 5) (nucleic acid)
DNA: ATGGTCTCCCACTCAGAGCTGAGGAAGCTCTTCTGTTCAGCGGATGCAGTGTGCTTTGATGTTGATAGCACCGTCATCAGAGAAGAAGGAATCGATGAGCTGGCCAAATTCTGTGGTGTGGAGGCCGCAGTGTCTGAAATGACACGGAGAGCCATGGGAGGAGCATTGCCTTTTAAAGACGCGCTCACTCAGCGCCTGGCACTGATCCAGCCCTCCAGGGATCAAGTCCAGAGGCTCCTAGCTGAGCACCCGCCACATCTGACTCCTGGCATAAGGGAGCTGGTAAGCCGCCTCCAGGAGCGTAATGTCCAGGTGTTCCTCATCTCTGGTGGCTTTCGGAGCATTGTGGAGCACGTTGCTGCAAAGCTCAATATCCCAACAACCAATGTGTTTGCCAATAGGCTGAAGTTCTACTTTAATGGTGAGTACGCAGGTTTTGATGAGATGCAGCCGACAGCCGAGTCGGGTGGGAAAGGAAAGGTTATTCGGTTTTTAAAGGAAAAATTTCACTTTAAGAAAATAATCATGATTGGAGATGGAGCTACGGACATGGAAGCCTGTCCTCCTGCTGATGCTTTCATTGGCTTTGGAGGCAATGTGATCAGGCAGCAGGTTAAGGACAACGCCAAGTGGTACATCACTGACTTCGTGGAGCTGCTGGGAGAACTGGAGGAGTGA
modifications: modRNA

Key:
cardiomyocytes (CM) [1] = assay: Mouse MI model: TUNEL staining of CM apoptosis; assay type: in vivo; details: SSP gene modRNA delivery; 7 days post-MI
Protocol: (§1) All surgical and experimental procedures with mice were performed in accordance with protocols approved by Institutional Animal Care and Use Committees at Temple University Animal Care and Use Committee (IACUC). C57BL6 or CM-specific MADM mice (8-12-weeks-old) were anesthetized with isoflurane. MI was induced by permanent ligation of the LAD, as previously described (Garikipati, V. N. S., et al., 2019, Nature Communications, 10:4317). Briefly, the left thoracic region was shaved and sterilized. After intubation, the heart was exposed through a left thoracotomy. A suture was placed to ligate the LAD. The thoracotomy and skin were sutured closed in layers. Excess air was removed from the thoracic cavity, and the mouse was removed from ventilation when normal breathing was established. In order to determine the effect of modRNA on cardiovascular outcome after MI, modRNAs (100 μg/heart) were injected into the infarct zone immediately after LAD ligation (Magadum A., et al., Circulation. 2020, 141 (15): 1249-1265). For examination of heart histology, hearts were collected at the end of each study, quickly washed in PBS, weighed, and fixed in 4% PFA for cryo-sectioning and immunostainings. In all experiments, the surgeon was blinded to the treatment group. For assessment of heart histology, hearts were collected at the end of each study. The hearts were excised, briefly washed in PBS, perfused with perfusion buffer, weighed and fixed in 4% PFA at 4° C. overnight. The heart blocks were transverse sectioned at 6-8 μm using cryostat. The heart sections were further processed for histological evaluation using immunostaining (see below) or histological scar staining using Masson's trichrome staining kit (Sigma) according to standard procedures. Measuring the ratio of heart weight to body weight was done using a scale. This ratio was calculated as the heart tissue weight relative to the mouse total body weight in grams (g).
Mice hearts were harvested, weighed, and fixed in 4% PFA/PBS overnight on shaker and then washed with PBS for 1 hour and incubated in 30% sucrose/PBS at 4° C. for 12-18 hours. Hearts were then fixed in OCT and frozen at −80° C. (Magadum A., et al., Circulation. 2020, 141 (15): 1249-1265). Transverse heart sections (6-8 μm) were made using a cryostat. […] For immunostaining with wheat germ agglutinin (WGA) for CM size quantification, images were captured at 40× magnification, and ImageJ was used to determine the area of each cell. Quantitative analyses involved counting of multiple fields from 5-8 mouse hearts per group, and 3-4 sections/heart (˜50 cells per field assessed, for a total ˜250 cells per sample). […] BrdU positive CMs were counted in multiple fields from three independent samples per group and 3 sections/heart. […]

cardiomyocytes (CM) [2] = assay: Mouse MI model: immunostaining of heart sections for CM cell cycle markers (ki67, pH3, BrdU, Aurora B); assay type: in vivo; details: SSP gene modRNA delivery; 7 days post-MI
Protocol: as §1
Mice were injected with AAV9-GFP or AAV9-YAP1-shRNA (GeneCopoeia) through retro-orbital injection 7 days before LAD. A total of 5×10^11 viral genomes (50 μl total volume delivered) was injected per mouse. The level of YAP1 inhibition was determined at the mRNA level by qPCR 14 days post injection.
Mice hearts were harvested, weighed, and fixed in 4% PFA/PBS overnight on shaker and then washed with PBS for 1 hour and incubated in 30% sucrose/PBS at 4° C. for 12-18 hours. Hearts were then fixed in OCT and frozen at −80° C. (Magadum A., et al., Circulation. 2020, 141 (15): 1249-1265). Transverse heart sections (6-8 μm) were made using a cryostat. Frozen sections were rehydrated in PBS for 5-10 min followed by permeabilization with PBS with 0.1% Triton™ X100 (PBST) for 7-8 min. Heart sections were then treated with 3% H2O2 for 5 min and washed (3×5 min) with PBST. The samples were then blocked with PBS+10% Donkey normal serum+0.1% Triton™ X100 (PBSST) for 1 hour at room temperature. Primary antibodies (see complete list of primary antibodies used for this Example in Table 2 below) diluted in PBST were added and incubated overnight at 4° C. Slides were washed with PBST (3×5 min) followed by incubation with a secondary antibody (Invitrogen, 1:200) diluted in PBST for 90-120 min at room temperature. The samples were further washed with PBST (3×5 min) and stained with DAPI or Hoechst 33342 (1 μg/ml) diluted in PBST for 7 min. After being washed with PBST (3×7 min) and tap water (1×5 min) slides were mounted with mounting medium (VECTASHIELD®) for imaging (Magadum A., et al., Circulation. 2020, 141 (15): 1249-1265). Stained slides were stored at 4° C. All staining was performed on 4-8 hearts/group, with 2-3 sections/heart. For immunostaining with wheat germ agglutinin (WGA) for CM size quantification, images were captured at 40× magnification, and ImageJ was used to determine the area of each cell. […]

| Molecule | CM apoptosis (TUNEL+ CMs) (cardiomyocytes (CM) [1]) | CM cell cycle (pH3+ CMs) (cardiomyocytes (CM) [2]) |
| --- | --- | --- |
| PHGDH: modRNA encoding phosphoglycerate dehydrogenase (ORF SEQ ID NO: 6) | inhibited | partially induced |
| B1 | inhibited | partially induced |
